How the values were obtained:
Conditions in all cases: scale 0 to 100
field poppy = assay: Test D preemergence; format: in vivo, Papaver rhoeas
Description: (§1) Seeds of plant species selected from bluegrass (annual bluegrass, Poa annua), blackgrass (Alopecurus myosuroides), canarygrass (littleseed canarygrass, Phalaris minor), chickweed (common chickweed, Stellaria media), galium (catchweed bedstraw, Galium aparine), bromegrass, downy (downy bromegrass, Bromus tectorum), field poppy (Papaver rhoeas), field violet (Viola arvensis), foxtail, green (green foxtail, Setaria viridis), deadnettle (henbit deadnettle, Lamium amplexicaule), ryegrass, Italian (Italian ryegrass, Lolium multiflorum), kochia (Kochia scoparia), lambsquarters (Chenopodium album), oilseed rape (Brassica napus), pigweed (redroot pigweed, Amaranthus retroflexus), chamomile (scentless chamomile, Matricaria inodora), speedwell (bird's-eye speedwell, Veronica persica), barley, spring (spring barley, Hordeum vulgare), wheat, spring (spring wheat, Triticum aestivum), buckwheat, wild (wild buckwheat, Polygonum convolvulus), mustard, wild (wild mustard, Sinapis arvensis), oat, wild (wild oat, Avena fatua), radish, wild (wild radish, Raphanus raphanistrum), windgrass (Apera spica-venti), Russian thistle (Salsola kali), barley, winter (winter barley, Hordeum vulgare), and wheat, winter (winter wheat, Triticum aestivum) were planted into a silt loam soil and treated preemergence with test chemicals formulated in a non-phytotoxic solvent mixture which included a surfactant.
(§2) At the same time, these species were planted in pots containing Redi-Earth® planting medium (Scotts Company, 14111 Scottslawn Road, Marysville, Ohio 43041) comprising spaghnum peat moss, vermiculite, wetting agent and starter nutrients and treated with postemergence applications of the test chemicals formulated in the same manner. Plants ranged in height from 2 to 18 cm (1- to 4-leaf stage). Treated plants and controls were maintained in a controlled growth environment for 14 to 21 days after which time all species were compared to controls and visually evaluated. Plant response ratings, summarized in Table D, are based on a scale of 0 to 100 where 0 is no effect and 100 is complete control. A dash (-) response means no test result.

foxtail, green = assay: Test D preemergence; format: in vivo, Setaria viridis
Description: as §1, §2

barley, spring = assay: Test D preemergence; format: in vivo, Hordeum vulgare
Description: as §1, §2

barley, winter = assay: Test D preemergence; format: in vivo, Hordeum vulgare
Description: as §1, §2

radish, wild [1] = assay: Test D preemergence; format: in vivo, Raphanus raphanistrum
Description: as §1, §2

mustard, wild = assay: Test D postemergence; format: in vivo, Sinapis arvensis
Description: as §1, §2

oat, wild = assay: Test D postemergence; format: in vivo, Avena fatua
Description: as §1, §2

radish, wild [2] = assay: Test D postemergence; format: in vivo, Raphanus raphanistrum
Description: as §1, §2

CCc1cc(C(=O)NC(C)C)nn1Cc1ccnc(C(F)(F)F)c1 [Compound 103]
Plant response rating, Field Poppy (field poppy; 31 g ai/ha): 100
Plant response rating, Field Poppy (field poppy; 62 g ai/ha): 100
Plant response rating, Field Poppy (field poppy; 125 g ai/ha): 100
Plant response rating, Field Poppy (field poppy; 250 g ai/ha): 100
Plant response rating, Foxtail, Green (foxtail, green; 31 g ai/ha): 20
Plant response rating, Foxtail, Green (foxtail, green; 62 g ai/ha): 100
Plant response rating, Foxtail, Green (foxtail, green; 125 g ai/ha): 100
Plant response rating, Foxtail, Green (foxtail, green; 250 g ai/ha): 100
Plant response rating, Barley, Spring (barley, spring; 31 g ai/ha): 15
Plant response rating, Barley, Spring (barley, spring; 62 g ai/ha): 35
Plant response rating, Barley, Spring (barley, spring; 125 g ai/ha): 80
Plant response rating, Barley, Spring (barley, spring; 250 g ai/ha): 100
Plant response rating, Barley, Winter (barley, winter; 31 g ai/ha): 0
Plant response rating, Barley, Winter (barley, winter; 62 g ai/ha): 35
Plant response rating, Barley, Winter (barley, winter; 125 g ai/ha): 60
Plant response rating, Barley, Winter (barley, winter; 250 g ai/ha): 85
Plant response rating, Radish, Wild (radish, wild [1]; 31 g ai/ha): 95
Plant response rating, Radish, Wild (radish, wild [1]; 62 g ai/ha): 100
Plant response rating, Radish, Wild (radish, wild [1]; 125 g ai/ha): 100
Plant response rating, Radish, Wild (radish, wild [1]; 250 g ai/ha): 100
Mustard, Wild plant response rating (mustard, wild; Postemergence, 31 g ai/ha): 25
Mustard, Wild plant response rating (mustard, wild; Postemergence, 125 g ai/ha): 60
Mustard, Wild plant response rating (mustard, wild; Postemergence, 250 g ai/ha): 60
Mustard, Wild plant response rating (mustard, wild; postemergence, 62 g ai/ha): 45
Oat, Wild plant response rating (oat, wild; Postemergence, 31 g ai/ha): 10
Oat, Wild plant response rating (oat, wild; Postemergence, 125 g ai/ha): 20
Oat, Wild plant response rating (oat, wild; Postemergence, 250 g ai/ha): 25
Oat, Wild plant response rating (oat, wild; postemergence, 62 g ai/ha): 15
Radish, Wild plant response rating (radish, wild [2]; Postemergence, 31 g ai/ha): 25
Radish, Wild plant response rating (radish, wild [2]; Postemergence, 125 g ai/ha): 50
Radish, Wild plant response rating (radish, wild [2]; Postemergence, 250 g ai/ha): 60
Radish, Wild plant response rating (radish, wild [2]; postemergence, 62 g ai/ha): 35

CCCc1cc(C(=O)NCC(F)(F)F)nn1Cc1cc(C(F)(F)F)nn1C [Compound 138]
Plant response rating, Field Poppy (field poppy; 62 g ai/ha): 100
Plant response rating, Field Poppy (field poppy; 125 g ai/ha): 100
Plant response rating, Field Poppy (field poppy; 250 g ai/ha): 100
Plant response rating, Foxtail, Green (foxtail, green; 62 g ai/ha): 100
Plant response rating, Foxtail, Green (foxtail, green; 125 g ai/ha): 100
Plant response rating, Foxtail, Green (foxtail, green; 250 g ai/ha): 100
Plant response rating, Barley, Spring (barley, spring; 31 g ai/ha): 0
Plant response rating, Barley, Spring (barley, spring; 62 g ai/ha): 5
Plant response rating, Barley, Spring (barley, spring; 125 g ai/ha): 40
Plant response rating, Barley, Spring (barley, spring; 250 g ai/ha): 75
Plant response rating, Barley, Winter (barley, winter; 31 g ai/ha): 5
Plant response rating, Barley, Winter (barley, winter; 62 g ai/ha): 35
Plant response rating, Barley, Winter (barley, winter; 125 g ai/ha): 60
Plant response rating, Barley, Winter (barley, winter; 250 g ai/ha): 70
Plant response rating, Radish, Wild (radish, wild [1]; 62 g ai/ha): 100
Plant response rating, Radish, Wild (radish, wild [1]; 125 g ai/ha): 100
Plant response rating, Radish, Wild (radish, wild [1]; 250 g ai/ha): 100
Mustard, Wild plant response rating (mustard, wild; Postemergence, 31 g ai/ha): 100
Mustard, Wild plant response rating (mustard, wild; Postemergence, 125 g ai/ha): 100
Mustard, Wild plant response rating (mustard, wild; Postemergence, 250 g ai/ha): 100
Mustard, Wild plant response rating (mustard, wild; postemergence, 62 g ai/ha): 100
Oat, Wild plant response rating (oat, wild; Postemergence, 31 g ai/ha): 20
Oat, Wild plant response rating (oat, wild; Postemergence, 125 g ai/ha): 25
Oat, Wild plant response rating (oat, wild; Postemergence, 250 g ai/ha): 60
Oat, Wild plant response rating (oat, wild; postemergence, 62 g ai/ha): 20
Radish, Wild plant response rating (radish, wild [2]; Postemergence, 31 g ai/ha): 80
Radish, Wild plant response rating (radish, wild [2]; Postemergence, 125 g ai/ha): 100
Radish, Wild plant response rating (radish, wild [2]; Postemergence, 250 g ai/ha): 95
Radish, Wild plant response rating (radish, wild [2]; postemergence, 62 g ai/ha): 80

CCOc1cc(C(=O)NC2CC2)nn1Cc1ccnc(C(F)(F)F)c1 [Compound 189]
Plant response rating, Field Poppy (field poppy; 62 g ai/ha): 100
Plant response rating, Field Poppy (field poppy; 125 g ai/ha): 100
Plant response rating, Field Poppy (field poppy; 250 g ai/ha): 100
Plant response rating, Foxtail, Green (foxtail, green; 62 g ai/ha): 100
Plant response rating, Foxtail, Green (foxtail, green; 125 g ai/ha): 100
Plant response rating, Foxtail, Green (foxtail, green; 250 g ai/ha): 100
Plant response rating, Barley, Spring (barley, spring; 31 g ai/ha): 0
Plant response rating, Barley, Spring (barley, spring; 62 g ai/ha): 40
Plant response rating, Barley, Spring (barley, spring; 125 g ai/ha): 70
Plant response rating, Barley, Spring (barley, spring; 250 g ai/ha): 85
Plant response rating, Barley, Winter (barley, winter; 31 g ai/ha): 10
Plant response rating, Barley, Winter (barley, winter; 62 g ai/ha): 35
Plant response rating, Barley, Winter (barley, winter; 125 g ai/ha): 60
Plant response rating, Barley, Winter (barley, winter; 250 g ai/ha): 65
Plant response rating, Radish, Wild (radish, wild [1]; 62 g ai/ha): 70
Plant response rating, Radish, Wild (radish, wild [1]; 125 g ai/ha): 100
Plant response rating, Radish, Wild (radish, wild [1]; 250 g ai/ha): 100
Mustard, Wild plant response rating (mustard, wild; Postemergence, 31 g ai/ha): 40
Mustard, Wild plant response rating (mustard, wild; Postemergence, 125 g ai/ha): 40
Mustard, Wild plant response rating (mustard, wild; Postemergence, 250 g ai/ha): 80
Mustard, Wild plant response rating (mustard, wild; postemergence, 62 g ai/ha): 40
Oat, Wild plant response rating (oat, wild; Postemergence, 31 g ai/ha): 20
Oat, Wild plant response rating (oat, wild; Postemergence, 125 g ai/ha): 30
Oat, Wild plant response rating (oat, wild; Postemergence, 250 g ai/ha): 35
Oat, Wild plant response rating (oat, wild; postemergence, 62 g ai/ha): 20
Radish, Wild plant response rating (radish, wild [2]; Postemergence, 31 g ai/ha): 60
Radish, Wild plant response rating (radish, wild [2]; Postemergence, 125 g ai/ha): 65
Radish, Wild plant response rating (radish, wild [2]; Postemergence, 250 g ai/ha): 85
Radish, Wild plant response rating (radish, wild [2]; postemergence, 62 g ai/ha): 60

Source: patent US20150105252A1, “SUBSTITUTED PYRAZOLES AS HERBICIDES” (E I DU PONT DE NEMOURS AND COMPANY, priority 2013, published 2015)
